Assays:
hypertensive patients = experiment: Study 2: dose-response of oral BH4 on blood pressure and heart rate, after 2-week vitamin C run-in; assay type: in vivo, human
Experimental: Prior studies have used parenteral infusion of BH4 or a single oral dose; thus it was not known whether long-term oral BH4 over a period of days to weeks would result in a sustained improvement in endothelial dysfunction. […] Two studies were conducted to investigate the duration of action of oral BH4 and the response of hypertensive subjects to different doses of BH4. […] Patients were continued on their current anti-hypertensive therapy which remained unchanged. […] BH4 powder was obtained from Schircks Laboratories (Jona, Switzerland). BH4 when administered with vitamin C was compounded with vitamin C at a ratio of 1 mg of vitamin C/1 mg BH4 into appropriate sized capsules. Subjects were advised to keep the pills in a freezer or refrigerator. For both study 1 and study 2, the primary end point after statistical analysis was a reduction of systolic, mean and diastolic BP during BH4 therapy. Secondary end points included improvement of endothelial function as FMD. Linear mixed effects models for repeated measures data were used to analyze change in BP from baseline to end of treatment period and differences in change between 100 mg and 200 mg dose groups. A quadratic term for week was included in the model to account for non-linear trends over the treatment period. Dose, week and week squared were the main effect terms in the model; dose by week and dose by week squared were the interaction terms in the model. Significant interaction terms indicate a difference in the pattern of change between the two dose groups. FMD data was analyzed using the two-tailed student t-test. […] Of the 20 subjects who qualified for participation, 4 were excluded during the run-in phase because of inability to return for follow-up appointments. There were 6 male subjects, mean age 59.5±8.3 years. Eight subjects received 200 mg b.i.d (twice daily) of oral BH4 and 8 received 100 mg b.i.d. of oral BH4. […] Because BH4 was compounded with vitamin C in a 1:1 ratio, all subjects received vitamin C, at their assigned BH4 dose, twice a day during the first 2-week period. After this 2-week run-in period, subjects received BH4 only at their assigned dosage for the next 4 weeks. Weekly heart rate and BP measurements were made during the run-in period and treatment period. Mean blood pressure was calculated as: (SBP+2×DBP)/3. BH4 was then stopped and follow-up was performed at 1 and 4 weeks after discontinuation where BP and heart rate measurements were made. Routine chemistries and LFT's were drawn prior to initiation of medication, at the end of BH4 therapy and one month after discontinuation of BH4.

[1] = test system: subjects with sickle cell disease; experiment: Phase 2a sickle cell disease study: endothelial function by EndoPAT; assay type: in vivo, human; details: preliminary findings, sickle cell disease patients treated with BH4
Experimental: This Phase 2a multicenter, open-label, dose-escalation study is designed to assess the safety and biologic activity of once daily (for 2.5, 5, and 10 mg/kg/day doses) or twice daily (for the 20 mg/kg/day dose) oral administration of 4 escalating doses of 6R-BH4 to subjects with SCD. During an optional extension phase, the study will assess the safety, tolerability, and efficacy of extended treatment with 6R-BH4. Subjects will receive oral, once-daily (for 2.5, 5, and 10 mg/kg/day) or twice-daily (for 20 mg/kg/day) doses of 6R-BH4 during a 16-week dose-escalation phase, with dose levels increasing within subjects every 4 weeks, as follows: 2.5, 5, 10, and 20 mg/kg/day. Prior to dose escalation, the each subject will be evaluated with respect to safety profile during the previous dose level, using predefined parameters. […] Endothelial function will be evaluated using Doppler echocardiogram (DE), peripheral arterial tonometry (EndoPAT), and exhaled nitric oxide (NO). The symptoms of SCD (frequency of sickle cell crises and vaso-occlusive crises), along with changes in the 6-minute-walk (MW) test, will be monitored. […] The number of tablets will be determined by the dose of sapropterin dihydrochloride, rounded to the nearest 100 mg. […]

[2] = test system: patients with poorly controlled hypertension; details: cited from earlier work
cardiac allograft = details: cited from earlier work
[3] = test system: venous grafts and arteries; details: acute BH4; diabetic subjects undergoing coronary artery bypass graft surgery; cited from earlier work
[4] = patients with Type II diabetes and coronary heart disease compared to control subjects; cited from earlier work
[5] = test system: coronary blood flow velocity; details: BH4 infused during angiography, patients with endothelial dysfunction; cited from earlier work

C[C@H](O)[C@H](O)[C@H]1CNc2nc(N)[nH]c(=O)c2N1 [BH4, tetrahydrobiopterin]
change in BP (hypertensive patients; Study 2, 100 mg b.i.d. of BH4): No statistically significant change | decrease in systolic BP (hypertensive patients; Study 2, 200 mg b.i.d. oral BH4, 4 weeks, p=0.03): significant decrease | decrease in mean BP (hypertensive patients; Study 2, 200 mg b.i.d. oral BH4, 4 weeks, p=0.04 by linear trend analysis): significant decrease | BP after discontinuation of BH4 (hypertensive patients; Study 2, 200 mg b.i.d., 4 weeks after discontinuation): returned to baseline levels | BP after termination of therapy (hypertensive patients; Study 2, 200 mg b.i.d., a week after termination): remained lower | systolic BP mean lowering at nadir (hypertensive patients; Study 2, 200 mg b.i.d., after 3 weeks, p=0.04): 16 mmHg | Mean BP after one week (hypertensive patients; Study 2, 200 mg b.i.d., p=0.02): significantly lower | decrease in diastolic BP (hypertensive patients; Study 2, 200 mg b.i.d., p=0.08): did not reach statistical significance | alteration in heart rate with BH4 (hypertensive patients; Study 2, either group, 100 mg or 200 mg b.i.d.): no significant alteration | dose at which the BP-lowering effect was observed (hypertensive patients; oral BH4, free of any changes in heart rate): ≥ 200 mg b.i.d. | time until reduction in BP was evident (hypertensive patients; oral BH4 therapy): ≤ 1 week | endothelial function as measured by the EndoPAT device [1]: improvement | blood pressure after cessation of therapy ([2]; 6 weeks after cessation): returned to baseline values | FMD following withdrawal ([2]; after 1 week following withdrawal): returned to baseline | FMD ([2]; after 8 weeks of oral BH4 (5 mg/kg/d, 10 mg/kg/d), eight patients): increased significantly | treatment time after which blood pressure reduction was significant ([2]; human, in vivo): 3 weeks | systolic and diastolic pressures ([2]; oral BH4 5 or 10 mg/kg/d over 8 weeks): significantly reduced | mean graft survival time (cardiac allograft; BH4 50 mg/kg every 8 hours intramuscularly for 7 days, untreated allografts 7.1±0.7 days, p<0.05): 12.3 ± 4.9 days | allograft survival (cardiac allograft; allogeneic mouse heart transplantation): significantly prolonged | Nitrate and nitrite concentrations in plasma (cardiac allograft; day 6, also elevated in untreated animals): elevated | vascular function in venous grafts and arteries [3]: restores | insulin sensitivity [4]: increases | abnormal vasoconstriction to acetylcholine [5]: prevented

— patent US20090018136A1, “METHODS AND COMPOSITIONS FOR THE TREATMENT OF VASCULAR DISEASE” (priority 2005, published 2009)
